Starred links: 1 amine or outer side, 2 acyl side, 3 side chain; linkers in the order of their positions; H or OH if unused. Non-standard residues stand in square brackets, D forms with d. Residues, ends and D or L forms follow the SMILES beside them. AlaΨ(CSNH)dAla = C[C@H](N[*:1])C(=S)N[C@H](C)C(=O)[*:2]; MeBmt = C/C=C/C[C@@H](C)[C@@H](O)[C@H](NC)C(=O)O; NMeLeu(4-OH) = CN[C@@H](CC(C)(C)O)C(=O)O; NMeL = CN[C@@H](CC(C)C)C(=O)O; NMeV = CN[C@H](C(=O)O)C(C)C; dHiv = CC(C)[C@@H](O)C(=O)O; dNMeA = CN[C@H](C)C(=O)O; Abu = CC[C@H](N)C(=O)O; Sar = CNCC(=O)O
Assays:
[1] = test system: Female C57BL/6 mice; assay: Evaluation of hair restoring effect in mice (topical application to shaved back); format: in vivo; details: for Area rate of hair regrowth (%): C57BL/6 mice, hair-removed back, 100 μl of 0.1% w/v once a day for 30 days, visual examination; for hair restoring / hair growth promoting effect (in words): qualitative statement
Protocol: Evaluation of Hair Restoring Effect in Mice
Female C57BL/6 mice of ages 6 to 7 weeks were utilized. After removing hairs on the middle of the back with an electric shaver, the mice were weighed and randomly assigned to the test groups with an even distribution of weights. […] The results were determined by visual examination, in terms of degrees of hair regrowth. With respect to respective hair-removed areas, rates of new hair growth were examined and compared.

[2] = test system: splenocytes (responder cells from BALB/c mice, stimulator cells from C57BL/6 mice); assay: Mixed Lymphocyte Reaction (MLR) method, 3H-thymidine incorporation; format: cell-based; details: qualitative statement
Protocol: Evaluation of Non-Immunosuppressive Activity In Vitro
Responder cells from BALB/c mice were mixed with an equal number of stimulator cells from C57BL/6 mice pre-treated with mitomycin. […] After 4 days of incubation, ^3H-thymidine was added to the mixtures and incubated for an additional 4 hours. Then, the amount of thymidine incorporated into the cells was measured (liquid scintillation counter), and IC50 (μg/ml) of respective cyclosporins were calculated.

C/C=C/C[C@@H](C)[C@@H](O)[C@H]1C(=O)N[C@@H]([C@@H](C)O)C(=O)N(C)CC(=O)N(C)[C@@H](CC(C)(C)O)C(=O)N[C@@H](CC(C)C)C(=O)N(C)[C@@H](CC(C)C)C(=O)N[C@@H](C)C(=O)O[C@H](C(C)C)C(=O)N(C)[C@@H](CC(C)C)C(=O)N[C@@H](CC(C)C)C(=O)N(C)[C@@H](C(C)C)C(=O)N1C [[L-threonine^2][γ-hydroxy-N-methyl-L-leucine^4][L-leucine^5][D-2-hydroxyisovaleric acid^8][L-leucine^10] cyclosporin A] (cyclo([MeBmt]T[Sar][NMeLeu(4-OH)]L[NMeL]A[dHiv][NMeL]L[NMeV]))
Area rate of hair regrowth (%) [1]: 90%

C/C=C/C[C@@H](C)[C@@H](O)[C@H]1C(=O)N[C@@H](CC)C(=O)N(C)[C@H](C)C(=O)N(C)[C@@H](CC(C)(C)O)C(=O)N[C@@H](C(C)C)C(=O)N(C)[C@@H](CC(C)C)C(=O)N[C@@H](C)C(=O)N[C@H](C)C(=O)N(C)[C@@H](CC(C)C)C(=O)N(C)[C@@H](CC(C)C)C(=O)N(C)[C@@H](C(C)C)C(=O)N1C [[N-methyl-D-alanine^3][γ-hydroxy-N-methyl-L-leucine^4] cyclosporin A] (cyclo([MeBmt][Abu][dNMeA][NMeLeu(4-OH)]V[NMeL]A[dA][NMeL][NMeL][NMeV]))
Area rate of hair regrowth (%) [1]: 95% | hair restoring / hair growth promoting effect (in words) [1]: has a hair restoring effect | immunosuppressive activity (in words) [2]: reduced

C/C=C/C[C@@H](C)[C@@H](O)[C@H]1C(=O)N[C@@H](CC)C(=O)N(C)CC(=O)N(C)[C@@H](CC(C)(C)O)C(=O)N[C@@H](C(C)C)C(=O)N(C)[C@@H](CC(C)C)C(=O)N[C@@H](C)C(=S)N[C@H](C)C(=O)N(C)[C@@H](CC(C)C)C(=O)N(C)[C@@H](CC(C)C)C(=O)N(C)[C@@H](C(C)C)C(=O)N1C [[γ-hydroxy-N-methyl-L-leucine^4][alaninethiomide^7, ^7ψ^8 CS—NH] cyclosporin A] (cyclo([MeBmt][Abu][Sar][NMeLeu(4-OH)]V[NMeL][AlaΨ(CSNH)dAla][NMeL][NMeL][NMeV]))
Area rate of hair regrowth (%) [1]: 91%

[γ-hydroxy-N-methyl-L-leucine^4] cyclosporin A [reference compound]
hair restoring / hair growth promoting effect (in words) [1]: has a hair restoring effect | immunosuppressive activity (in words) [2]: no immunosuppressive activity

Reference: patent US20040161399A1, “Use of nonimmunosuppressive [$g(g)-hydroxy-n-methyl-l-leucine4]cyclosporin derivatives for treating hair loss” (priority 2001, published 2004)
